From patent publication US20230323355A1 (priority 2020, published 2023)
pEC50: −log10 of the molar value.

Tested on: SARS-CoV-2 Wuhan virus (SARS-CoV-2-WA1 2020)
Experiment: microbe, parasite or virus in culture
Type: cell-based

In the case of `CCC(CC)COC(=O)[C@H](C)N[P@](=O)(OC[C@H]1O[C@@](C#N)(c2ccc3c(N)ncnn23)[C@H](O)[C@@H]1O)Oc1ccccc1` [Remdesivir], the “fold reduction in SARS-CoV-2 replication” value was 1.5 fold, the “inhibition of SARS-CoV-2 Wuhan” value was “did not inhibit” and the pEC50 (Severe acute respiratory syndrome coronavirus 2, Vero C1008) was about 6.10.
